Data from patent publication US20230050588A1, “ANTIOXIDANT OR SKIN STRESS INHIBITOR” (Shiseido Company, Ltd., priority 2020, published 2023).

Columns and labels:
Type in all cases: cell-based
Set-up in all cases: key: ○ corresponds to genes whose expression is significantly changed; x corresponds to genes whose expression is not changed
HMOX1 = test: Microarray gene expression in keratinocytes UV-irradiated through wavelength conversion substance: HMOX1; conditions: Normal Human Epidermal Keratinocytes; UV 100 mJ/cm^2 through substance solution without direct contact; 24 hours after irradiation
Description: (§1) The wavelength conversion substances of (1) and (2) were dissolved in water to prepare solutions at concentrations of 1% and 5%.
(§2) The wavelength conversion substances of (3) and (4) were dispersed in alcohol to prepare 5% and 10% dispersions.
(§3) 1. Normal Human Epidermal Keratinocytes (PromoCell) were used. A cell suspension (1 mL) stored with liquid nitrogen was placed in a hot water bath (37° C.) and thawed until small ice pellets remained, and then diluted with 9 mL of warm KGM medium. 2. The diluted suspension was gently mixed and transferred to a T75 flask, and incubated overnight at 37° C. 3. On the following day, the medium was exchanged with 10 mL of fresh medium. 4. The medium was periodically exchanged (once every 2 to 3 days), while continuing growth of the cells. During this time, a microscope was used to observe the cells and to confirm that the cells had proliferated with the proper form. 5. Once the cells reached approximately 80% confluence, they were subcultured. 6. Subculturing of the cells was carried out by rinsing and aspirating once in 10 mL of warm PBS. 7. 5 mL of warm trypsin was added to the T75 flask to cover the bottom of the flask with the trypsin solution, and the mixture was aspirated after standing for 1 minute at room temperature. 8. The flask was set in an oven at 37° C. for 5 minutes (maximum) for keratinocytes. […]

AHRR = test: Microarray gene expression in keratinocytes UV-irradiated through wavelength conversion substance: AHRR; conditions: Normal Human Epidermal Keratinocytes; UV 100 mJ/cm^2 through substance solution without direct contact; 24 hours after irradiation
Description: as §1, §2, §3

AhR = test: Microarray gene expression in keratinocytes UV-irradiated through wavelength conversion substance: AhR; conditions: Normal Human Epidermal Keratinocytes; UV 100 mJ/cm^2 through substance solution without direct contact; 24 hours after irradiation; expression of AhR is reduced
Description: as §1, §2, §3

`Cc1cc2nc3c(=O)[nH]c(=O)nc-3n(C[C@H](O)[C@H](O)[C@H](O)CO)c2cc1C` [Vitamin B2, Riboflavin] was tested, and the “HMOX1 gene expression change (microarray)” value (HMOX1) was “x”, the “AHRR gene expression change (microarray)” value (AHRR) was “○” and the “AhR gene expression change (microarray)” value (AhR) was “○”.
